Measured values published in patent publication US12133836B2, “Reduction of adipose tissue” (10XBIO, LLC, priority 2015, dated 2024).

Assays:
[1] = test system: inguinal-lateral fat pad (ILFP); assay: Effect of polidocanol on the inguinal-lateral fat pad (ILFP) of hamsters: fat weight analysis; type: in vivo, LVG Syrian Golden Hamsters
Text: Concentration of polidocanol solutions: 0.5%, 1.25% and 2%; Deoxycholate dose concentration: 1.0%
Species: LVG Syrian Golden Hamsters, retired breeders
Body weight: 165-187 grams (on first day of treatment period); Sex: Male; Vendor: Charles River; Diet: Standard lab chow; Randomization: Animals were grouped so that the mean body weights are approximately equal among the treatment subgroups
(§1) Model: The inguinal fat pads were used as a model tissue. In the golden hamster, these subcutaneous fat pads lying bilaterally in the inguinal region were continuous with fat pads located laterally on each respective flank, and thus were referenced here as inguinal-lateral fat pads or ILFPs. The length of each fat pad offered the opportunity for two injections spaced approximately […] within each fat pad, and similarly placed control injections in the contralateral fat pad of the same animal. The unilateral experimental treatment in this model offered the advantage of paired comparison of treated and non-treated fat pads within individual animals, and served as a model to assess lipolytic effects of test compounds.
(§2) Test Articles: Polidocanol: Solutions provided by Advantar (or other), 0.5%, 1.25%, and 2.0%, formulated with propylene glycol.
(§3) Treatment: Under isoflurane anesthesia, the right ILFP was injected with 0.2 cc of drug solution at two sites (medial and lateral portions of the ILFP), spaced 0.5 cm apart. The left ILFP was injected in medial and lateral sites with filtered vehicle control solution. A total of 36 animals were divided into three dose groups, outlined in the following table:
Harvesting: On day 28 (injections at Day 0) and 56 (injections at Day 0 and Day 28), the animals were sacrificed and the ILFPs excised and weighed (see “INGUINAL/LATERAL FAT PAD HARVESTING PROCEDURE,” below). Medial and lateral portions of each ILFP were weighed together. After weighing, each portion was frozen separately on dry ice and stored frozen for histological analysis.
Fat weight analysis: Results were expressed primarily as the mean difference between the right and left ILFPs in grams (A R-L) and as the percent difference (A R-L %). Statistical analysis was performed.
(§4) The animals were injected percutaneously with 0.2 mL/injection of test article solution at up to four (4) sites (in the medial, central, and lateral portions of the ILFP) running superiorly to caudally, spaced 0.5 cm apart. The injections were carried out by inserting the needle into the right inguinal region, locating the tip of the needle in the middle of the fat pad between the peritoneal wall and the right leg. In hamsters, the fat could be roughly visualized as a light area beneath the skin. The tip of the needle was at a depth adequate to enter the inguinal fat (as discerned by the thickness of tissue when the needle tip is raised slightly upward while in its final position) while avoiding the leg muscle and the peritoneum. The needle tip was placed approximately 0.5 cm medial to a line drawn from the patella of the knee to the xyphoid appendix of the sternum.
With the animal lying ventral side up, skin was cut along abdominal midline from the umbilicus to a point caudal to the penis near the bottom of the scrotum. The skin was cut from the penile area in a posterior and lateral direction toward the posterior of the hindlimb. […] An elipse was harvested of skin overlying the region of the ILFP, and placed in formalin for storage and. […]

[2] = test system: adipose tissue; assay: Histological analysis of treated adipose tissue (H&E); type: in vivo, LVG Syrian Golden Hamsters; conditions: H&E stained sections
Protocol: Histological analysis: The right (polidocanol treated) medial injection sites of all six subjects, and one left (saline treated) site from each treatment group (animals #3 and #5), were analyzed histologically to determine evidence of necrosis within the adipose tissue. The selected samples were sectioned at a thickness of 20 microns taken at intervals of 0.5 mm through the tissue. The sections were mounted and stained with H&E and examined microscopically for evidence of necrosis or inflammation. Representative images of each tissue were recorded with a Carl Zeiss color camera.
In addition, there is a lymphomononuclear inflammatory infiltrate with macrophage phagocytosis of lipid cell debris.

[3] = test system: skin tissue; assay: Skin adverse events (skin necrosis) after subcutaneous injection into the inguinal fat pad; type: in vivo, LVG Syrian Golden Hamsters
Text: as §1, §2, §3, §4

[4] = test system: fat tissue; assay: Co-solvent injected with polidocanol (tolerability, uniformity of fat necrosis); type: in vivo; conditions: as co-solvent

## polidocanol
[1]; FIG. 5A-5B
  visible change in inguinal fat pad fullness / inguinal crease (body contour): externally visible reduction in inguinal fat pad fullness
[1]; polidocanol 0.5%, day 28 after a single treatment, formulated with propylene glycol
  reductions in inguinal fat pad mass: 15%
[1]; polidocanol 1.25%, day 28 after a single treatment, formulated with propylene glycol
  reductions in inguinal fat pad mass: 15%
[1]; polidocanol 2.0%, day 28 after a single treatment, formulated with propylene glycol
  fat pad mass reductions: 10%
[1]; same optimized dosing frequency, volume, and injection spacing (FIG. 3)
  reductions in fat pad mass relative to deoxycholate: at least equivalent to deoxycholate
[2]
  histopathology of treated adipose tissue: dose dependent changes of fat cell necrosis and apoptosis
[3]; 2% polidocanol
  skin necrosis (proportion of animals): 33%
[3]; FIG. 6
  selectivity for fat tissue relative to skin tissue: selectively destroys fat tissue relative to skin tissue
[3]; Polidocanol 1.25%, Group 2A, moderate skin necrosis (FIG. 8A)
  skin necrosis side effect, number of animals: 1 of 9
[3]; Polidocanol 2%, Group 3B, moderate skin necrosis (FIG. 8B)
  skin necrosis side effect, number of animals: 2 animals
[3]; polidocanol concentration greater than about 1.25%
  side effects such as skin necrosis, inflammation, large subcutaneous fat droplets: higher proportion of side effects
[3]; polidocanol injection at 0.5% (1 of 9 animals)
  animals with mild skin breakdown: 11%
[3]; polidocanol injection at 1.25% (1 of 9 animals)
  animals with mild skin breakdown: 11%

## deoxycholate
[3]; 1% deoxycholate (3 of 5 animals)
  animals that developed severe skin necrosis: 60%
[3]; Deoxycholate 1%, Group 4 (FIG. 8C)
  skin necrosis side effect, number of animals: 3 of 5

## CC(O)CO (centres unmarked) [propylene glycol, propane-1,2-diol]
[4]
  irritation when injected with polidocanol: non-irritating
[4]; relative to the absence of co-solvent
  patchy and incomplete fat tissue necrosis: reduced amount of patchy and incomplete fat tissue necrosis
